# From EP3436024B1, “3-BETA-METHOXY-PREG FOR USE IN THE TREATMENT OF TREATMENT RESISTANT DEPRESSION” (Mapreg, priority 2016, dated 2017)
# Legend:
# [1] = system: Wistar Kyoto (WKY) rats; experiment: Locomotor activity in the open-field arena, WKY rats; assay type: in vivo, rat; details: acute, fluoxetine 10 mg/kg i.p., ketamine 30 mg/kg i.p., 3 min, Fig. 5A
# Protocol: (§1) After a 6-day period of acclimatization, all experimental groups received daily successive subcutaneous (250 µl per rat) and intraperitoneal (1 ml/kg) injections. WI rats received injection of vehicle (sesame oil + saline) while WKY rats were randomly assigned to […], as follow: KWY rats receiving only vehicle (sesame oil + saline) and WKY rats treated with MAP4343 (10 mg/kg, s.c.; rats received in parallel i.p. injections of saline), fluoxetine (10 mg/kg i.p., rats received in parallel s.c. injections of sesame oil) or ketamine (30 mg/kg, i.p.; rats received in parallel s.c. injections of sesame oil) (see Figure 3).
# (§2) After, a 6-day period of acclimatization, the acute phase of treatment started for 4 days during behavioral tests were performed (Figure 3). All animals were injected 1h30 before the starting of behavioral test.
# (§3) The animals were individually placed in the open field arena (OFA) (70 x 100 x 70 cm), with a central square (35 x 50 cm), located in a 50 lux illuminated room and videotaped during 3 min using a computerized system (VideoTrack V2.5, ViewPoint, Lyon, France).
# (§4) OFA allows firstly the evaluation of total locomotor activity (LMA) thereby measuring the total distance travelled in the arena (in cm). Secondly, measurements of the activity in the center of the arena like (i) the number of entries in the center of arena and (ii) the total time spent in the center of arena (in sec) provide cues of anxiety-like behavior (Prut and Belzung, 2003). All these behavioral parameters were instantaneously measured automatically with the VideoTrack V2.5 software from the videos.
# [2] = system: Wistar Kyoto (WKY) rats; experiment: Anxious-like behavior: activity in the central square of the open-field arena, WKY rats; assay type: in vivo, rat; details: acute, MAP4343 10 mg/kg s.c., fluoxetine 10 mg/kg i.p., ketamine 30 mg/kg i.p.
# Protocol: as §1, §2, §3, §4
# [3] = system: Wistar Kyoto (WKY) rats; experiment: Elevated-plus maze (EPM), WKY rats; assay type: in vivo, rat; details: acute, fluoxetine 10 mg/kg, Fig. 5D
# Protocol: as §1, §2
# We used the elevated-plus maze (EPM) as an assay of anxiety-related behavior in rodents (Walf and Frye, 2007). Rats were initially placed in the center of the plus-maze, consisting of two open arms (50 x 10 cm) and two closed arms (50 x 10 cm enclosed by 40 cm walls), in a 50 lux illuminated room and videotaped during 5 min using a computerized system (VideoTrack V2.5, ViewPoint, Lyon, France). The time spent in the open versus closed arms was blindly measured by two independent experimenters from the recorded video, and the open arm-index was calculated as follow: time in the open arms (sec) / [time in open arms (sec) + time in closed arms (sec)].
# [4] = system: Wistar Kyoto (WKY) rats; experiment: Forced swimming test (FST), WKY rats; assay type: in vivo, rat; details: acute administration (4 days), MAP4343 10 mg/kg, fluoxetine 10 mg/kg i.p., ketamine 30 mg/kg i.p., Fig. 6C
# Protocol: 3B-methoxy-PREG (also referred to as "MAP4343" in Example 4) was dissolved in sesame oil by sonication using a Sonifer-450 (Branson Ultrasonics Corporation, Danbury, USA) during 1 cycle of 5 pulses in sesame oil. Fluoxetine (Biotrend, Köln, Germany) and Ketamine (Sigma-Aldrich, St-Quentin Fallvier, France) were dissolved in sterile saline solution (NaCl 0.9%). The drug formulations were prepared freshly each day of treatment. MAP4343 was administered subcutaneously (ranging of 1-15 mg/Kg/day) while fluoxetine and ketamine were injected intraperitonealy (10 mg/Kg/day and 30 mg/Kg/day, respectively).
# After a 6-day period of acclimatization, all experimental groups received daily successive subcutaneous (250 µl per rat) and intraperitoneal (1 ml/kg) injections. […]
# Rats were submitted to the forced swimming test (FST), according the procedure initially described by (Detke et al., 1995) and slightly modified by (Bianchi et al., 2002). […] The pre-test and test sessions were recorded using a video camera placed above the cylinder for subsequent behavioral analysis. The immobility time (in sec) was blindly measured by two independent experimenters from recorded videos. […]
# The effects of a dose-ranging administration of MAP4343 were tested in WI and WKY rats on their immobility time measured in FST.
# [5] = Body weight of treated WKY rats; assay type: in vivo; details: fluoxetine 10 mg/kg i.p., 4 days
structure (smiles),measurement,setting,value
CNCCC(Oc1ccc(C(F)(F)F)cc1)c1ccccc1 (centres unmarked) [fluoxetine],"locomotor activity (total distance travelled in the open-field arena), change as compared to WKY receiving vehicle",[1]; MAP4343 10 mg/kg s.c.,-45%
same,"locomotor activity (total distance travelled in the open-field arena), change as compared to MAP4343-treated WKY",[1],-52%
same,"number of entries in the central square of OFA, change as compared to WKY receiving only vehicle",[2]; Fig. 5B,failed to significantly modify
same,"time spent in the center of open-field, change as compared to WKY receiving vehicle",[2]; Fig. 5C,did not induce any significant change
same,"open-arm (OA) index, change when compared to WKY receiving vehicle alone","[3]; MAP4343 10 mg/kg s.c., ketamine 30 mg/kg i.p.",-84%
same,"open-arm (OA) index, change when compared to MAP4343-treated WKY",[3],-95%
same,"immobility time measured in FST, change when compared to WKY rats receiving vehicle alone",[4],+29%
same,body weight,[5],reduced body weight
